The values below come from patent US10087216B2 (priority 2014, dated 2018).

Molecules are shown by their SMILES.

This experiment concerns potassium ion channel current of the DRG neurons. Nature of the experiment: cells. Type of experiment: cell-based, SD rats.

What is called inhibition is the drop in the measured response relative to a control, in per cent. On to `Nc1ccncc1` [4AP, 4-aminopyridine], for which, for the setting “5 mM”, the “Current recorded after loading” value is given as 0.9766 nA. Moreover, under “Rattus norvegicus, DRG neuron, read-out: Current inhibition rate”, the inhibition at 5000 µM turned out to be 33.8%.
